Measured values as given in ChEMBL document CHEMBL6087414, “Discovery of 4-(4-(3-(1-(2-(piperidin-1-yl)ethyl)-1H-benzo[d]imidazole-2-yl)isoxazol-5-yl)phenyl)morpholine as a novel c-Myc inhibitor against lung cancer in vitro and in vivo” (Eur J Med Chem, 2025).
Each block holds one compound with its values, some of them ahead of it. The source made the active and inactive calls. No cut-off for these calls is given here.

Assays:
A549 [1] = assay: Cytotoxicity against human A549 cells assessed as inhibition of cell viability incubated for 48 hrs by CCK8 assay; assay type: functional, cell-based; conditions: A549, 48 h
NCI-H1299 = assay: Cytotoxicity against human NCI-H1299 cells assessed as inhibition of cell viability incubated for 48 hrs by CCK8 assay; assay type: functional, cell-based; conditions: NCI-H1299, 48 h
A549 [2] = assay: Induction of apoptosis in human A549 cells assessed as increase in BAX level at 2.5 to 10 uM incubated for 48 hrs by Western blot analysis; assay type: functional, cell-based; conditions: dose 2.5-10 µM
A549 [3] = assay: Induction of apoptosis in human A549 cells assessed as late apoptotic cells at 2.5 uM incubated for 48 hrs by Annexin V-FITC/PI staining based flow cytometry (reference value: 5.79 %); assay type: functional
A549 [4] = assay: Induction of apoptosis in human A549 cells assessed as activation of caspase-9 cleavage at 2.5 to 10 uM incubated for 48 hrs by Western blot analysis; assay type: functional, cell-based; conditions: dose 2.5-10 µM
A549 [5] = assay: Induction of apoptosis in human A549 cells assessed as activation of caspase-3 cleavage at 2.5 to 10 uM incubated for 48 hrs by Western blot analysis; assay type: functional, cell-based; conditions: dose 2.5-10 µM
A549 [6] = assay: Induction of apoptosis in human A549 cells assessed as early apoptotic cells at 2.5 uM incubated for 48 hrs by Annexin V-FITC/PI staining based flow cytometry (reference value: 5.02 %); assay type: functional
A549 [7] = assay: Induction of apoptosis in human A549 cells at 5 uM incubated for 48 hrs by Annexin V-FITC/PI staining based flow cytometry relative to control; assay type: functional
A549 [8] = assay: Induction of apoptosis in human A549 cells assessed as necrotic cells at 2.5 uM incubated for 48 hrs by Annexin V-FITC/PI staining based flow cytometry (reference value: 1.41 %); assay type: functional
[9] = target: Myc proto-oncogene protein (Homo sapiens) (UniProt P01106); assay: Inhibition of c-Myc in human A549 cells by Western blot analysis; assay type: cell-based; conditions: dose <= 10.0 µM
A549 [10] = assay: Effect on c-Myc mRNA expression in human A549 cells at 10 uM by Q-PCR analysis; assay type: functional, cell-based
A549 [11] = assay: Induction of apoptosis in human A549 cells assessed as early apoptotic cells at 5 uM incubated for 48 hrs by Annexin V-FITC/PI staining based flow cytometry (reference value: 5.02 %); assay type: functional
[12] = target: Myc proto-oncogene protein (Homo sapiens) (UniProt P01106); assay: Inhibition of c-Myc in human A549 cells at 10 uM incubated for 24 hrs in presence of MG132 by Western blot analysis; assay type: cell-based
A549 [13] = assay: Induction of apoptosis in human A549 cells assessed as viable cells at 5 uM incubated for 48 hrs by Annexin V-FITC/PI staining based flow cytometry (reference value: 87.8 %); assay type: functional; conditions: read-out: Activity
A549 [14] = assay: Induction of apoptosis in human A549 cells assessed as early apoptotic cells at 10 uM incubated for 48 hrs by Annexin V-FITC/PI staining based flow cytometry (reference value: 5.02 %); assay type: functional
A549 [15] = assay: Induction of apoptosis in human A549 cells assessed as necrotic cells at 10 uM incubated for 48 hrs by Annexin V-FITC/PI staining based flow cytometry (reference value: 1.41 %); assay type: functional
A549 [16] = assay: Induction of apoptosis in human A549 cells incubated for 48 hrs by Annexin V-FITC/PI staining based flow cytometry; assay type: functional, cell-based; conditions: dose 5-15 µM
[17] = target: Myc proto-oncogene protein (Homo sapiens) (UniProt P01106); assay: Inhibition of c-Myc in human NCI-H1299 cells by Western blot analysis; assay type: cell-based; conditions: dose <= 10.0 µM
A549 [18] = assay: Induction of apoptosis in human A549 cells at 15 uM incubated for 48 hrs by Annexin V-FITC/PI staining based flow cytometry relative to control; assay type: functional
[19] = Cytotoxicity against human BEAS-2B cells assessed as cell viability upto 20 uM incubated for 48 hrs by CCK8 assay relative to control; assay type: toxicity, cell-based; conditions: read-out: Activity
A549 [20] = assay: Induction of apoptosis in human A549 cells assessed as viable cells at 10 uM incubated for 48 hrs by Annexin V-FITC/PI staining based flow cytometry (reference value: 87.8 %); assay type: functional; conditions: read-out: Activity
A549 [21] = assay: Induction of apoptosis in human A549 cells assessed as late apoptotic cells at 5 uM incubated for 48 hrs by Annexin V-FITC/PI staining based flow cytometry (reference value: 5.79 %); assay type: functional
A549 [22] = assay: Induction of apoptosis in human A549 cells assessed as viable cells at 2.5 uM incubated for 48 hrs by Annexin V-FITC/PI staining based flow cytometry (reference value: 87.8 %); assay type: functional; conditions: read-out: Activity
A549 [23] = assay: Induction of apoptosis in human A549 cells assessed as late apoptotic cells at 10 uM incubated for 48 hrs by Annexin V-FITC/PI staining based flow cytometry (reference value: 5.79 %); assay type: functional
A549 [24] = assay: Induction of apoptosis in human A549 cells assessed as increase in BAD level at 2.5 to 10 uM incubated for 48 hrs by Western blot analysis; assay type: functional, cell-based; conditions: dose 2.5-10 µM
A549 [25] = assay: Induction of apoptosis in human A549 cells assessed as decrease in Bcl-2 level at 2.5 to 10 uM incubated for 48 hrs by Western blot analysis; assay type: functional, cell-based; conditions: dose 2.5-10 µM
A549 [26] = assay: Induction of apoptosis in human A549 cells assessed as necrotic cells at 5 uM incubated for 48 hrs by Annexin V-FITC/PI staining based flow cytometry (reference value: 1.41 %); assay type: functional
[27] = target: Myc proto-oncogene protein (Homo sapiens) (UniProt P01106); assay: Inhibition of c-Myc in human A549 cells assessed as decrease in half life at 10 uM pretreated for 12 hrs followed by CHX treatment for 1 to 2 hrs by Western blot analysis; assay type: cell-based; conditions: time 13-14 hrs

Sequence of Myc proto-oncogene protein (Homo sapiens) (P01106 whole entry): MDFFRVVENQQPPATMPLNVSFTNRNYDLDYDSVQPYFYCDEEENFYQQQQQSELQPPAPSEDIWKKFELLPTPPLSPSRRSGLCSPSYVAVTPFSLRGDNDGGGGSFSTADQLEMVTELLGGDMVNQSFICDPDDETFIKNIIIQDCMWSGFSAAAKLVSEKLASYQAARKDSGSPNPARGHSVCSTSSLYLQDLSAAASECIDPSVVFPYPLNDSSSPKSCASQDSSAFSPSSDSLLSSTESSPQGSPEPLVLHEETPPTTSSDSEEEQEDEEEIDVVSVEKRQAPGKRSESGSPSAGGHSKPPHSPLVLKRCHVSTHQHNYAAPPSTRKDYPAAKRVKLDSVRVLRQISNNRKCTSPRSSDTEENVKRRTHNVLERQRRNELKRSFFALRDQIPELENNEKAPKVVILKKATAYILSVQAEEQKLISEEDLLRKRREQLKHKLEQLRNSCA

Structure (SMILES): CN(C)c1ccc(-c2cc(-c3nc4ccccc4n3CCN3CCOCC3)no2)cc1
- IC50 (A549 [1]): 12.7 µM
- IC50 (NCI-H1299): 17.7 µM

Structure (SMILES): CN(C)c1ccc(-c2cc(-c3nc4ccccc4n3CCN3CCCCC3)no2)cc1
- IC50 (A549 [1]): 9.22 µM
- IC50 (NCI-H1299): 13.1 µM

Structure (SMILES): CCc1ccc(C(=O)n2c(-c3cc(-c4ccc(N5CCOCC5)cc4)on3)nc3ccccc32)cc1
- IC50 (A549 [1]): 23.6 µM
- IC50 (NCI-H1299): 27.6 µM

- inhibition [9]: Dose-dependent-effect
- inhibition [12]: inactive
- inhibition [17]: Dose-dependent-effect
- inhibition [27]: Active
Structure (SMILES): c1ccc2c(c1)nc(-c1cc(-c3ccc(N4CCOCC4)cc3)on1)n2CCN1CCCC1
- Activity (A549 [2]): Active
- Activity (A549 [3]): 17.7%
- Activity (A549 [4]): Active
- Activity (A549 [5]): Active
- Activity (A549 [6]): 4.67%
- Activity (A549 [7]): 22.3%
- Activity (A549 [8]): 5.52%
- IC50 (A549 [1]): 6.32 µM
- Activity (A549 [10]): inactive
- Activity (A549 [11]): 11.7%
- viability at 5 µM (A549 [13]): 66.3%
- Activity (A549 [14]): 7.88%
- Activity (A549 [15]): 3.66%
- Activity (A549 [16]): Dose-dependent-effect
- Activity (A549 [18]): 53%
- viability at 48 h, 20 µM [19]: > 90%
- viability at 10 µM (A549 [20]): 43.2%
- Activity (A549 [21]): 19.5%
- viability at 2.5 µM (A549 [22]): 72.1%
- Activity (A549 [23]): 45.2%
- Activity (A549 [24]): Active
- Activity (A549 [25]): Active
- Activity (A549 [26]): 2.44%
- IC50 (NCI-H1299): 11.4 µM

Structure (SMILES): Cc1ccc(C(=O)n2c(-c3cc(-c4ccc(F)cc4)on3)nc3ccccc32)cc1
- IC50 (A549 [1]): > 40 µM
- IC50 (NCI-H1299): 30.1 µM

Structure (SMILES): Fc1ccc(-c2cc(-c3nc4ccccc4n3Cc3ccccc3)no2)cc1
- IC50 (A549 [1]): > 40 µM
- IC50 (NCI-H1299): > 40 µM

Structure (SMILES): CN(C)CCCn1c(-c2cc(-c3ccc(N4CCOCC4)cc3)on2)nc2ccccc21
- IC50 (A549 [1]): 10.1 µM
- IC50 (NCI-H1299): 22.3 µM

Structure (SMILES): c1ccc2c(c1)nc(-c1cc(-c3ccc(N4CCCC4)cc3)on1)n2CCN1CCCCCC1
- IC50 (A549 [1]): 21.2 µM
- IC50 (NCI-H1299): 36.3 µM

Structure (SMILES): c1ccc2c(c1)nc(-c1cc(-c3ccc(N4CCCC4)cc3)on1)n2CCN1CCCC1
- IC50 (A549 [1]): 20.8 µM
- IC50 (NCI-H1299): 38 µM

Structure (SMILES): CN(C)CCCn1c(-c2cc(-c3ccc(N4CCCCCC4)cc3)on2)nc2ccccc21
- IC50 (A549 [1]): 8.19 µM
- IC50 (NCI-H1299): 12.9 µM

Structure (SMILES): Cc1cc(C)cc(C(=O)n2c(-c3cc(-c4ccc(N5CCOCC5)cc4)on3)nc3ccccc32)c1
- IC50 (A549 [1]): 19.2 µM
- IC50 (NCI-H1299): > 40 µM

Structure (SMILES): c1ccc2c(c1)nc(-c1cc(-c3ccc(N4CCCCCC4)cc3)on1)n2CCN1CCCCC1
- IC50 (A549 [1]): 10.9 µM
- IC50 (NCI-H1299): 21.8 µM

Structure (SMILES): c1ccc2c(c1)nc(-c1cc(-c3ccc(N4CCOCC4)cc3)on1)n2CCCN1CCCCC1
- IC50 (A549 [1]): 6.25 µM
- IC50 (NCI-H1299): 20.2 µM

Structure (SMILES): c1ccc2c(c1)nc(-c1cc(-c3ccc(N4CCCC4)cc3)on1)n2CCCN1CCOCC1
- IC50 (A549 [1]): 29.5 µM
- IC50 (NCI-H1299): 36.2 µM

Structure (SMILES): c1ccc2c(c1)nc(-c1cc(-c3ccc(N4CCCCCC4)cc3)on1)n2CCN1CCOCC1
- IC50 (A549 [1]): 10.9 µM
- IC50 (NCI-H1299): 21 µM

Structure (SMILES): CN(C)CCn1c(-c2cc(-c3ccc(N4CCOCC4)cc3)on2)nc2ccccc21
- IC50 (A549 [1]): 8.92 µM
- IC50 (NCI-H1299): 18.9 µM

Structure (SMILES): c1ccc2c(c1)nc(-c1cc(-c3ccc(N4CCOCC4)cc3)on1)n2CCCN1CCOCC1
- IC50 (A549 [1]): 13.6 µM
- IC50 (NCI-H1299): 23.2 µM

Structure (SMILES): c1ccc2c(c1)nc(-c1cc(-c3ccc(N4CCCCC4)cc3)on1)n2CCN1CCCCCC1
- IC50 (A549 [1]): 9.38 µM
- IC50 (NCI-H1299): 16.7 µM

Structure (SMILES): CCN(CC)CCCn1c(-c2cc(-c3ccc(N4CCCCC4)cc3)on2)nc2ccccc21
- IC50 (A549 [1]): 7.41 µM
- IC50 (NCI-H1299): 18 µM

Structure (SMILES): c1ccc(Cn2c(-c3cc(-c4ccc(N5CCOCC5)cc4)on3)nc3ccccc32)cc1
- IC50 (A549 [1]): > 40 µM
- IC50 (NCI-H1299): > 40 µM

Structure (SMILES): c1ccc2c(c1)nc(-c1cc(-c3ccc(N4CCCCCC4)cc3)on1)n2CCCN1CCOCC1
- IC50 (A549 [1]): 20.6 µM
- IC50 (NCI-H1299): 22.3 µM

Structure (SMILES): c1ccc2c(c1)nc(-c1cc(-c3ccc(N4CCOCC4)cc3)on1)n2CCN1CCOCC1
- IC50 (A549 [1]): 8.46 µM
- IC50 (NCI-H1299): 21 µM
